Laboratory results as given in patent US6607906B1, “Heterologous G protein coupled receptors expressed in yeast, their fusion with G proteins and use thereof in bioassay” (priority 1994, dated 2003).
Read-outs that look alike come from different tables or passages of the source. Blank lines part the entries; values can stand above or below the molecule they belong to. Residues, ends and D or L forms follow the SMILES beside them.

What was measured:
rat CCKB receptor [1] = biological target: T1, rat CCKB receptor (Rattus norvegicus, UniProt P30553); test: Radiolabeled agonist saturation binding of 3H-CCK-8, yeast membranes (LY631); details: GppNHp 100 μM, LY631 crude membranes
T1 construct: expressed in transfected cells; host or cells: Saccharomyces cerevisiae LY296 derivatives LY631 (Gpa1-Gαs chimera, pLP122) and LY628 (Gpa1-Gαi2 chimera, pLP121)
T1 sequence (P30553 1-452): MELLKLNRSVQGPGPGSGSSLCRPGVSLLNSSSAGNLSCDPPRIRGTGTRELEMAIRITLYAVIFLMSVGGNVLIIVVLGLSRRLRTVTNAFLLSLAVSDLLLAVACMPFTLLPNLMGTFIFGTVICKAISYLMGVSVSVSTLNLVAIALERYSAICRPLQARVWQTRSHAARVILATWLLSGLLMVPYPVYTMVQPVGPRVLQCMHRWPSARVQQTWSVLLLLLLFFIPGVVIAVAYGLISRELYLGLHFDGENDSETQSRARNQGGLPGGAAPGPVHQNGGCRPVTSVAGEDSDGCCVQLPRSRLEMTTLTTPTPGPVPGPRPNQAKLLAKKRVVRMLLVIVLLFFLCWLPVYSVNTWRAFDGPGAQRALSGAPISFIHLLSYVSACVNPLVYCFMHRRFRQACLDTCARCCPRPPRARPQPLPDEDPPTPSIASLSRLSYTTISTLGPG

[2] = biological target: T2, rat SSTR2 somatostatin receptor subtype (Rattus norvegicus, UniProt P30680); test: Binding of radiolabeled somatostatin 14 to membranes of yeast expressing SSTR2; details: for percent radioligand bound compared to untreated samples, +Gpp(NH)p: Gpp(NH)p 100 μM
T2 construct: expressed in transfected cells; host or cells: Saccharomyces cerevisiae YPH500 derivatives CY624 (Gαi2), CY602 (Gαs), CY603 (Scg1); crude membranes

human 5HTla receptor = biological target: T3, human 5HTla receptor (Homo sapiens, UniProt P08908); test: Saturation binding of 3H-spiperone to yeast membrane fractions (strain CY382, pCHI11)
T3 construct: first 14 amino acids of yeast Ste2 (N); expressed in transfected cells; host or cells: Saccharomyces cerevisiae strain CY382 (plasmid pCHI11), membrane fractions
T3 sequence (P08908 with tags, fused parts or gaps): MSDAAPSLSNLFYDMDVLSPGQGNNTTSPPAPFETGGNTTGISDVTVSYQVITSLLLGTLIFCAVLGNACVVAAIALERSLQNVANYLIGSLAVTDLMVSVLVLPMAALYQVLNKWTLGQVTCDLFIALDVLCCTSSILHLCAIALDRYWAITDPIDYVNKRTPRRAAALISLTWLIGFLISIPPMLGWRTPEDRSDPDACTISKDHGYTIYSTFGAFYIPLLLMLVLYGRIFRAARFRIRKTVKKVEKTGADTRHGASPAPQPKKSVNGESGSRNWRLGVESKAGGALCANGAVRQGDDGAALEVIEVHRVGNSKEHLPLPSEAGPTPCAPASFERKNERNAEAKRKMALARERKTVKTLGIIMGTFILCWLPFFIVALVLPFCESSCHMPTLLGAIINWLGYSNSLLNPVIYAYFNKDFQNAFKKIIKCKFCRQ

human GRF receptor = biological target: T4, human GRF receptor (Homo sapiens, UniProt Q02643); test: Agar plate growth bioassay, yeast expressing GRF receptor (CY990); assay type: cell-based
T4 construct: expressed in transfected cells; host or cells: Saccharomyces cerevisiae CY990 (LY296 with pJH25 and pLP122 Gpa1-Gαs)
T4 sequence (Q02643 23-423): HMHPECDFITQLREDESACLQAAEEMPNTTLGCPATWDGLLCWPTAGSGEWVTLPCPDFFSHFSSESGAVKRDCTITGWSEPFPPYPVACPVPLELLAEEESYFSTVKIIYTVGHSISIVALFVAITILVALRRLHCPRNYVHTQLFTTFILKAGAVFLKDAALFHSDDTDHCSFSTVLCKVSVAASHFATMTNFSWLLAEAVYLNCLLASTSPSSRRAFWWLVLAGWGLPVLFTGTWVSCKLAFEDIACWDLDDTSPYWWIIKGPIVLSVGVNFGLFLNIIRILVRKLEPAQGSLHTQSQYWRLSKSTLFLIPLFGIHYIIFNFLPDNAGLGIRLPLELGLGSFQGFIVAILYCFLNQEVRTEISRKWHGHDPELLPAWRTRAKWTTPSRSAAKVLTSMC

porcine SSTR2 = test: Agar plate growth bioassay, yeast expressing porcine SSTR2 (LY474); assay type: cell-based
rat SSTR5 = biological target: T5, rat SSTR5 (Rattus norvegicus, UniProt P30938); test: Agar plate growth bioassay, yeast expressing SSTR5 (LY620); assay type: cell-based
T5 construct: expressed in transfected cells; host or cells: Saccharomyces cerevisiae LY620 (LY296 with pJH19 and pLP121 Gpa1-Gαi2)
T5 sequence (P30938 1-363): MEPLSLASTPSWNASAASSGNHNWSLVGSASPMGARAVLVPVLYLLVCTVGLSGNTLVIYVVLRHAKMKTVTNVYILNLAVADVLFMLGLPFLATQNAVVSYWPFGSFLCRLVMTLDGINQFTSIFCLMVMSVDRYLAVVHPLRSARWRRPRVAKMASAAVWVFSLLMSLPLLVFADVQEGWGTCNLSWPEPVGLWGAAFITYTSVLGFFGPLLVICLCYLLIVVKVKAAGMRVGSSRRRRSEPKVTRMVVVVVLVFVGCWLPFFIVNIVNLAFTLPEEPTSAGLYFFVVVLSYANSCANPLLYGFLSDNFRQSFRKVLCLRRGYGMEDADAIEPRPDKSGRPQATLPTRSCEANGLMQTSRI

rat CCKB receptor [3] = biological target: T1, rat CCKB receptor; test: Agar plate growth bioassay, yeast expressing CCKB receptor (LY628, LY631); assay type: cell-based
rat CCKB receptor (rat) = rat CCKB receptor (rat) (UniProt P30553); test: cell-based or functional assay
[4] = biological target: rat SSTR2 somatostatin receptor subtype (rat) (UniProt P30680); test: maximal radioligand binding, crude membranes of yeast strain CY603 (SSTR2 with Scg1)
[5] = biological target: porcine SSTR2 expressed from plasmid pJH17 (porcine) (UniProt P34994); test: saturation radioligand binding, crude membranes of yeast cells bearing pJH17
[6] = biological target: rat SSTR2 somatostatin receptor subtype (rat) (UniProt P30680); test: radioligand binding with Gpp(NH)p (100 µM), crude membranes of yeast strain CY602 (SSTR2 with Gαs)
[7] = biological target: rat SSTR2 somatostatin receptor subtype (rat) (UniProt P30680); test: saturation radioligand binding, membranes of yeast coexpressing SSTR2 and Scg1/Gαi2
[8] = biological target: rat SSTR2 somatostatin receptor subtype (rat) (UniProt P30680); test: maximal radioligand binding, crude membranes of yeast strain CY624 (SSTR2 with Gαi2)
[9] = biological target: rat SSTR2 somatostatin receptor subtype (rat) (UniProt P30680); test: maximal radioligand binding, crude membranes of yeast strain CY602 (SSTR2 with Gαs)
[10] = biological target: rat SSTR2 somatostatin receptor subtype (rat) (UniProt P30680); test: radioligand binding with Gpp(NH)p (100 µM), crude membranes of yeast strain CY603 (SSTR2 with Scg1)
[11] = biological target: rat SSTR2 somatostatin receptor subtype (rat) (UniProt P30680); test: radioligand binding with Gpp(NH)p (100 µM), crude membranes of yeast strain CY624 (SSTR2 with Gαi2)
[12] = biological target: human GRF receptor (human) (UniProt Q02643); test: cell-based or functional assay
rat SSTR2 = rat SSTR2 (Rattus norvegicus, UniProt P30680); assay type: cell-based
[13] = LY628 and LY631 cells, 30° C., 3 days

Sequence of rat SSTR2 somatostatin receptor subtype (rat) (P30680 whole entry): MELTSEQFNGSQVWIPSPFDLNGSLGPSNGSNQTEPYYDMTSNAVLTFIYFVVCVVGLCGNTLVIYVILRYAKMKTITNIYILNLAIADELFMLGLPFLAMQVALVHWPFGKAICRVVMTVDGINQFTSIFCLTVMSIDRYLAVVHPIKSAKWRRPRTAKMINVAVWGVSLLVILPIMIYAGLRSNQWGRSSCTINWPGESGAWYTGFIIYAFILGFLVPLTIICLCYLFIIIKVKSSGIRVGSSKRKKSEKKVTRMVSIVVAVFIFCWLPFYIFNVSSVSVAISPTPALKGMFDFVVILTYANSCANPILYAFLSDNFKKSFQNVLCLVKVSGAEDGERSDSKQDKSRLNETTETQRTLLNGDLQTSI
T2 sequence (P30680 with tags, fused parts or gaps limits assumed): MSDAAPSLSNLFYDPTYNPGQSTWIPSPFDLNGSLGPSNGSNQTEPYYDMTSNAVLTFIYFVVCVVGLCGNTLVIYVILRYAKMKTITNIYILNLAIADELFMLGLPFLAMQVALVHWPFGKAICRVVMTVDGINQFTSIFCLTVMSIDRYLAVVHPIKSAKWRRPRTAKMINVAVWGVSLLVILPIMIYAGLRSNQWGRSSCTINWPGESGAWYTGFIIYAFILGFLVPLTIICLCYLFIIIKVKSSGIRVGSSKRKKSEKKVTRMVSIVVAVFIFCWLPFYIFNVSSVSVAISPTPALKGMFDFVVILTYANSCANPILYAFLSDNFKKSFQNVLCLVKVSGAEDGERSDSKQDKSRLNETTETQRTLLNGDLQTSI
Sequence of rat SSTR2 (P30680 whole entry): as the sequence (P30680 whole entry) above

Molecule: Nc1nc2c(ncn2[C@@H]2O[C@H](COP(=O)(O)OP(=O)(O)NP(=O)(O)O)[C@@H](O)[C@H]2O)c(=O)[nH]1 [Gpp (NH) p]
decrease of specific binding of 3H-CCK-8 (rat CCKB receptor [1]): greater than 50% | percent radioligand bound compared to untreated samples, +Gpp(NH)p ([2]; strain CY602, Gαs): 0% | percent radioligand bound compared to untreated samples, +Gpp(NH)p ([2]; strain CY603, Scgl): 4% | percent radioligand bound compared to untreated samples, +Gpp(NH)p ([2]; strain CY624, Gαi): 22%

Molecule: C[C@H](N)C(=O)NCC(=O)N[C@H]1CSSC[C@@H](C(=O)O)NC(=O)[C@H](CO)NC(=O)[C@H]([C@@H](C)O)NC(=O)[C@H](Cc2ccc(O)c(I)c2)NC(=O)[C@H]([C@@H](C)O)NC(=O)[C@H](CCCCN)NC(=O)[C@H](Cc2c[nH]c3ccccc23)NC(=O)[C@H](Cc2ccccc2)NC(=O)[C@H](Cc2ccccc2)NC(=O)[C@H](CC(N)=O)NC(=O)[C@H](CCCCN)NC1=O [[^125I]tyr^11S-14] (HELM PEPTIDE1{A.G.C.K.N.F.F.W.K.T.[O=C([C@H](Cc1ccc(O)c(I)c1)N[*:1])[*:2]].T.S.C}$PEPTIDE1,PEPTIDE1,3:R3-14:R3$$$V2.0; N-terminus and C-terminus assumed; bridges inferred)
Bmax ([2]; strain CY602, Gαs): 13.7 fmol/mg total protein | Bmax ([2]; strain CY603, Scgl): 24.7 fmol/mg total protein | Bmax ([2]; strain CY624, Gαi): 94.5 fmol/mg total protein | Kd ([2]; yeast coexpressing Scgl/Gαi2, read-out: calculated Kd): 0.5 nM

Molecule: C[N+](C)(C)CCOC(N)=O [carbachol]
growth response (human GRF receptor; CY990 cells, 3 days): not observed | growth response (porcine SSTR2; LY474 cells, 3 days): not observed | growth response (rat SSTR5; LY620 cells, 3 days): not observed | growth response (rat CCKB receptor [3]; [13]): not observed

Molecule: CC(C)NCC(O)c1ccc(O)c(O)c1 (centres unmarked) [isoproterenol]
growth response (human GRF receptor; CY990 cells, 3 days): not observed | growth response (porcine SSTR2; LY474 cells, 3 days): not observed | growth response (rat SSTR5; LY620 cells, 3 days): not observed | growth response (rat CCKB receptor [3]; [13]): not observed

Molecule: Cc1cc(C(C)(C)C)c(O)c(C)c1CC1=NCCN1 [oxymetazoline]
growth response (human GRF receptor; CY990 cells, 3 days): not observed | growth response (porcine SSTR2; LY474 cells, 3 days): not observed | growth response (rat SSTR5; LY620 cells, 3 days): not observed | growth response (rat CCKB receptor [3]; [13]): not observed

Molecule: CCK-4 (from UniProt P06307 100-103) (peptide)
amount giving a detectable growth response (rat CCKB receptor (rat)): 10 µg

Molecule: hGRF (1-29)-NH2 (from UniProt P01286 32-60) (peptide)
amount giving a detectable growth response, strain CY990 [12]: 20 nmol

Molecule: met-enkephalin: an opiate receptor agonist
growth response (human GRF receptor): not observed | growth response (porcine SSTR2): not observed | growth response (rat SSTR5): not observed | growth response (halo) around disks (rat SSTR2): No detectable response | growth response (rat CCKB receptor [3]): not observed

Molecule: sandostatin
diameter of the growth zones, rank order (porcine SSTR2): S-14=MK678>sandostatin | growth response (porcine SSTR2): dose-dependent growth response

Further lines, results first:

Bmax (human 5HTla receptor; saturation binding, strain CY382): 3.2 pmol/mg protein | Bmax (human 5HTla receptor; strain carrying pCHI11): 3.1 pmol/mg
Molecule: O=C(CCCN1CCC2(CC1)C(=O)NCN2c1ccccc1)c1ccc(F)cc1 [^3H-spiperone, spiperone]

amount giving a detectable response (rat CCKB receptor [3]): 10 µg | diameter of the growth zones, rank order (rat CCKB receptor [3]): CCK-8>gastrin>CCK-4 | growth response (rat CCKB receptor [3]; [13]): dose-dependent growth response
Molecule: CCK-4: cholecystokinin

Bmax (fmol/mg total protein) [4]: 24.7 | Bmax [5]: 146 fmol/mg | percent radioligand bound with Gpp(NH)p compared to untreated samples [6]: 0% | Kd [7]: 0.5 nM | Bmax (fmol/mg total protein) [8]: 94.5 | Bmax (fmol/mg total protein) [9]: 13.7 | percent radioligand bound with Gpp(NH)p compared to untreated samples [10]: 4% | percent radioligand bound with Gpp(NH)p compared to untreated samples [11]: 22%
Molecule: [^125I-tyr^11]-somatostatin 14 (from UniProt P61278 103-116) (peptide)

amount giving a detectable response (human GRF receptor): 20 nmol | growth response (human GRF receptor; CY990 cells, 3 days): dose-dependent growth response
Molecule: hGRF (1-29)-NH2: an agonist analog of GRF
